Calls of active or inactive are those of the source. The rule behind the calls is not given here. Bridge positions count the residues as written; N and C are the ends. Square brackets hold non-standard residues; d marks the D form. Peptide text beside a SMILES is read from it. * marks the point of attachment. X1 = CC[C@H](C)CCCCC(=O)*; dDab = NCC[C@@H](N)C(=O)O; Dab = NCC[C@H](N)C(=O)O
Assays:
Escherichia coli [1] = assay: In vivo antibacterial activity against Escherichia coli intraperitoneally injected into C57BL/6 mouse peritonitis model assessed as mouse survival at 2.5 mg/kg, ip measured after 48 hrs relative to control; assay type: functional
Escherichia coli [2] = assay: In vivo antibacterial activity against Escherichia coli intraperitoneally injected into C57BL/6 mouse peritonitis model assessed as reduction in bacterial load in spleen at 2.5 mg/kg, ip measured after 48 hrs relative to control; assay type: functional, organism-based
Escherichia coli [3] = assay: In vivo antibacterial activity against Escherichia coli intraperitoneally injected into C57BL/6 mouse peritonitis model assessed as reduction in bacterial load in lung at 2.5 mg/kg, ip measured after 48 hrs relative to control; assay type: functional, organism-based
Escherichia coli [4] = assay: In vivo antibacterial activity against Escherichia coli intraperitoneally injected into C57BL/6 mouse peritonitis model assessed as reduction in bacterial load in liver at 2.5 mg/kg, ip measured after 48 hrs relative to control; assay type: functional, organism-based
Escherichia coli [5] = assay: In vivo antibacterial activity against Escherichia coli intraperitoneally injected into C57BL/6 mouse peritonitis model assessed as reduction in bacterial load in kidney at 2.5 mg/kg, ip measured after 48 hrs relative to control; assay type: functional, organism-based
Mus musculus [6] = assay: In vivo anti-inflammatory efficacy in Escherichia coli intraperitoneally injected into C57BL/6 mouse peritonitis model assessed as reduction in TNF-alpha level in blood at 2.5 mg/kg, ip measured after 48 hrs by ELISA; assay type: functional, organism-based
Escherichia coli [7] = assay: In vivo antibacterial activity against Escherichia coli intraperitoneally injected into C57BL/6 mouse peritonitis model assessed as reduction in bacterial load in blood at 2.5 mg/kg, ip measured after 48 hrs relative to control; assay type: functional, organism-based
Mus musculus [8] = assay: In vivo anti-inflammatory efficacy in Escherichia coli intraperitoneally injected into C57BL/6 mouse peritonitis model assessed as reduction in IL-6 level in blood at 2.5 mg/kg, ip measured after 48 hrs by ELISA; assay type: functional, organism-based
Mus musculus [9] = assay: In vivo anti-inflammatory efficacy in Escherichia coli intraperitoneally injected into C57BL/6 mouse peritonitis model assessed as reduction in IL-1beta level in blood at 2.5 mg/kg, ip measured after 48 hrs by ELISA; assay type: functional, organism-based
Staphylococcus aureus = assay: Antibacterial activity against Staphylococcus aureus ATCC 25923 assessed as inhibition of bacterial growth measured after 24 hrs by broth microdilution method; assay type: functional
[10] = Toxicity in C57BL/6 mouse assessed as increase in body weight at 25 mg/kg, ip measured during 14 days of study; assay type: organism-based; details: in vivo, 336 h, time 14 day
[11] = Toxicity in C57BL/6 female mouse assessed as juxtaglomerular cells and interstitial fibrous tissues in kidney at 25 mg/kg, ip measured during 14 days of study by H and E staining based analysis; assay type: organism-based; details: in vivo, 336 h, time 14 day
[12] = Toxicity in C57BL/6 female mouse assessed as haemorrhagic point and blurred white pulp boundary in liver at 25 mg/kg, ip measured during 14 days of study by H and E staining based analysis; assay type: organism-based; details: in vivo, 336 h, time 14 day
[13] = Toxicity in C57BL/6 mouse assessed as death at 25 mg/kg, ip measured during 14 days of study; assay type: organism-based; details: in vivo, 336 h, time 14 day
[14] = Toxicity in C57BL/6 mouse assessed as death at 50 mg/kg, ip measured on day 4; assay type: organism-based; details: in vivo, 96 h, time 4 day
[15] = Toxicity in C57BL/6 female mouse assessed as apparent inflammatory exudates ([…], neutrophiles, macrophages) in lungs at 25 mg/kg, ip measured during 14 days of study by H and E staining based analysis; assay type: organism-based; details: in vivo, 336 h, time 14 day
[16] = Stability of the compound in human serum assessed as peptide degradation by RP-HPLC analysis; assay type: ADME, cell-free; details: read-out: T50 (converted)
[17] = Stability of the compound in human serum assessed as remaining peptide by RP-HPLC analysis; assay type: ADME, cell-free
Klebsiella pneumoniae = assay: Antibacterial activity against Klebsiella pneumoniae ATCC 13883 assessed as inhibition of bacterial growth measured after 24 hrs by broth microdilution method; assay type: functional
[18] = Toxicity in C57BL/6 female mouse assessed as haemorrhagic point and blurred white pulp boundary in spleen at 25 mg/kg, ip measured during 14 days of study by H and E staining based analysis; assay type: organism-based; details: in vivo, 336 h, time 14 day
Pseudomonas aeruginosa = assay: Antibacterial activity against Pseudomonas aeruginosa PAO1 assessed as inhibition of bacterial growth measured after 24 hrs by broth microdilution method; assay type: functional
[19] = Stability of the compound in human serum assessed as retention time by RP-HPLC analysis; assay type: ADME, cell-free
Cell membrane = assay: Induction of Outer membrane damage in Escherichia coli assessed as irregular collapsed and rough surface membrane at 5 uM measured after 24 hrs by SEM imaging analysis
[20] = Hemolytic activity in human RBC assessed as hemolysis incubated for 1 hr by microplate reader; assay type: toxicity, cell-based, Erythrocyte; details: red blood cells

| Compound | Activity (Escherichia coli [1]) | Activity (Escherichia coli [2]) | Activity (Escherichia coli [3]) | Activity (Escherichia coli [4]) | Activity (Escherichia coli [5]) | Activity (Mus musculus [6]) | Activity (Escherichia coli [7]) | Activity (Mus musculus [8]) | Activity (Mus musculus [9]) | other results |
| --- | --- | --- | --- | --- | --- | --- | --- | --- | --- | --- |
| CC(C)CCCCC(=O)N[C@@H](CCN)C(=O)N[C@H](C(=O)N[C@@H](CCN)C(=O)N[C@H]1CCNC(=O)[C@H]([C@@H](C)O)NC(=O)[C@H](CCN)NC(=O)[C@H](CCN)NC(=O)[C@H](CC(C)C)NC(=O)[C@@H](Cc2ccccc2)NC(=O)[C@H](CCN)NC1=O)[C@@H](C)O.CC[C@H](C)CCCCC(=O)N[C@@H](CCN)C(=O)N[C@H](C(=O)N[C@@H](CCN)C(=O)N[C@H]1CCNC(=O)[C@H]([C@@H](C)O)NC(=O)[C@H](CCN)NC(=O)[C@H](CCN)NC(=O)[C@H](CC(C)C)NC(=O)[C@@H](Cc2ccccc2)NC(=O)[C@H](CCN)NC1=O)[C@@H](C)O (X1-[Dab]T[Dab][Dab][Dab][dF]L[Dab][Dab]T; lactam 4-C) | 100% | – | – | – | – | – | – | – | – | – |
| CC(C)CCCCC(=O)N[C@@H](CCN)C(=O)N[C@H](C(=O)N[C@@H](CCN)C(=O)N[C@H]1CCNC(=O)[C@H]([C@@H](C)O)NC(=O)[C@H](CCN)NC(=O)[C@H](CCN)NC(=O)[C@H](CC(C)C)NC(=O)[C@@H](Cc2ccccc2)NC(=O)[C@@H](CCN)NC1=O)[C@@H](C)O.CC[C@H](C)CCCCC(=O)N[C@@H](CCN)C(=O)N[C@H](C(=O)N[C@@H](CCN)C(=O)N[C@H]1CCNC(=O)[C@H]([C@@H](C)O)NC(=O)[C@H](CCN)NC(=O)[C@H](CCN)NC(=O)[C@H](CC(C)C)NC(=O)[C@@H](Cc2ccccc2)NC(=O)[C@@H](CCN)NC1=O)[C@@H](C)O (X1-[Dab]T[Dab][Dab][dDab][dF]L[Dab][Dab]T; lactam 4-C) | – | Active | Active | Active | Active | Active | Active | Active | Active | – |
| Ac-KWKLFKKIEKVGQNIRDGIIKAGPAVAVVGQATQIAK-NH2 | 50% | Active | Active | Active | Active | Active | Active | Active | Active | MIC (Staphylococcus aureus): > 100 µM; Activity [10]: Toxic; Activity [11]: Non-toxic; Activity [12]: Non-toxic; Activity [13]: Non-toxic; Activity [14]: Toxic; Activity [15]: Non-toxic; half-life [16]: 2.17 h; Stability [17]: > 50%; MIC (Klebsiella pneumoniae): 12.5 µM; Activity [18]: Non-toxic; MIC (Pseudomonas aeruginosa): 100 µM; Retention_time [19]: 21.69 min; Activity (Cell membrane): Active; HC50 at 1 h [20]: 174 µM |
